Assay results from ChEMBL document CHEMBL3862009 (Bioorg Med Chem Lett, 2016).

Experiments:
Histamine H4 receptor [1] = molecular target: T1, Histamine H4 receptor (Homo sapiens, UniProt Q9H3N8); test: Antagonist activity at human histamine H4 receptor expressed in human SH-SY5Y cell membranes assessed as inhibition of Imetit-induced [35S]GTPgammaS binding; assay type: functional
Histamine H4 receptor [2] = molecular target: T1, Histamine H4 receptor; test: Intrinsic activity at human histamine H4 receptor expressed in human SH-SY5Y cell membranes by [35S]GTPgammaS binding assay; assay type: functional
HEK293 = test: Selectivity ratio of Ki for human H3 receptor expressed in HEK293 cell membranes to Kb for human histamine H4 receptor expressed in human SH-SY5Y cell membranes; assay type: cell-based
Histamine H3 receptor [3] = molecular target: T2, Histamine H3 receptor (Homo sapiens, UniProt Q9Y5N1); test: Displacement of [125I]iodoproxyfan from human H3 receptor expressed in HEK293 cell membranes after 1 hr
Histamine H3 receptor [4] = molecular target: T2, Histamine H3 receptor; test: Antagonist activity at human histamine H3 receptor
Histamine H4 receptor [5] = molecular target: T1, Histamine H4 receptor; test: Binding affinity to histamine H4 receptor (unknown origin)
Histamine H3 receptor [6] = molecular target: T2, Histamine H3 receptor; test: Binding affinity to histamine H3 receptor (unknown origin)

T1 sequence (Q9H3N8 whole entry): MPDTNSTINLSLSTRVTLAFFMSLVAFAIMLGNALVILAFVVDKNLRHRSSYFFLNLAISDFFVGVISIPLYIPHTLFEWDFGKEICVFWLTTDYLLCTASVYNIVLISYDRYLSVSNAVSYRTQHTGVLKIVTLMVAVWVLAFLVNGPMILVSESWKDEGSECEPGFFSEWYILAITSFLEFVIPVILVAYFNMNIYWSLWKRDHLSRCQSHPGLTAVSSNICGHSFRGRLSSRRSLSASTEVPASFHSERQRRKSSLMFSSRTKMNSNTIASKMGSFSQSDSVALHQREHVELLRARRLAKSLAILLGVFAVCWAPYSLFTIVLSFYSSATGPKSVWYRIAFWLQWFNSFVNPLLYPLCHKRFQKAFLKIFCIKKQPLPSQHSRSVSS
T2 sequence (Q9Y5N1 whole entry): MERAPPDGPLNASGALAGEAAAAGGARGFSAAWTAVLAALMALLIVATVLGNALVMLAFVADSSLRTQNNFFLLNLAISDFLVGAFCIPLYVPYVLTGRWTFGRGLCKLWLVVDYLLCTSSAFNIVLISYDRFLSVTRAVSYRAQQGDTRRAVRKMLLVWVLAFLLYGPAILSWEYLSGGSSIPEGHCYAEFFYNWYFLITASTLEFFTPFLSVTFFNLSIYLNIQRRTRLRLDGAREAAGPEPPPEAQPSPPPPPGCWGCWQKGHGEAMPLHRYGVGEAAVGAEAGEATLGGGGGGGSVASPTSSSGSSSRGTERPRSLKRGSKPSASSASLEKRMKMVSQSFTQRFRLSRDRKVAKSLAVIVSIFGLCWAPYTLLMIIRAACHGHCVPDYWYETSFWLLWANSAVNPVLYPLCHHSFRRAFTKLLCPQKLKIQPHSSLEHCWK

SMILES	Kb (Histamine H4 receptor [1]) [nM]	Intrinsic activity (Histamine H4 receptor [2])	also measured
c1ccc(C(OCCn2ccnc2)c2nc3ccccc3s2)cc1 (configuration not stated)	> 10000	0	
c1ccc(C(OCCCc2c[nH]cn2)c2cccnc2)cc1 (configuration not stated)	32	0	
c1ccc(C(OCCCc2c[nH]cn2)c2ccc3ccccc3c2)cc1 (configuration not stated)	100	0	
Cc1[nH]cnc1CCCOC(c1ccccc1)c1nc2ccccc2s1 (configuration not stated)	1.6	0	
c1ccc(-c2ccc(C(OCCCc3c[nH]cn3)c3ccccc3)cc2)cc1 (configuration not stated)	17	0	
Cn1cnc(CCCOC(c2ccccc2)c2nc3ccccc3s2)c1 (configuration not stated)	> 10000	0	
c1ccc(C(OCCc2c[nH]cn2)c2nc3ccccc3s2)cc1 (configuration not stated)	3.7	0	
c1ccc(C(OCCCc2c[nH]cn2)c2nc3ccccc3s2)cc1 (configuration not stated)	1.1	0	Selectivity ratio (HEK293): 31; Ki (Histamine H3 receptor [3]): 34 nM
Cn1cncc1CCCOC(c1ccccc1)c1nc2ccccc2s1 (configuration not stated)	> 10000	0	
c1ccc(C(OCc2c[nH]cn2)c2nc3ccccc3s2)cc1 (configuration not stated)	399	0	
Cc1nc(CCCOC(c2ccccc2)c2nc3ccccc3s2)c[nH]1 (configuration not stated)	> 10000	0	
c1ccc(C(OCCCCn2ccnc2)c2nc3ccccc3s2)cc1 (configuration not stated)	> 10000	0	
c1ccc(C(OCCCc2c[nH]cn2)c2ccccc2)cc1	19	0	Selectivity ratio (HEK293): 0.9; Ki (Histamine H3 receptor [3]): 17 nM; Ki (Histamine H3 receptor [4]): 17 nM
c1ccc(C(OCCCc2c[nH]cn2)c2cncnc2)cc1 (configuration not stated)	29	0	
Cn1cnc(CCN)c1 [N-METHYLHISTAMINE]			Ki (Histamine H4 receptor [5]): 11000 nM; Ki (Histamine H3 receptor [6]): 20000 nM
c1ccc(C(OCCCn2ccnc2)c2nc3ccccc3s2)cc1 (configuration not stated)	> 10000	0	
